Converted amounts (≈) assume the structure as drawn. Bounds are passed on as bounds.

A short description of one data set: in vitro. The settings on record: human. How it is done:
(§1) Collect cells with curette, infect cells with 10^−2 AZT sensitive (018a) or AZT resistant (018c) virus strain liquid, and adsorb for 2 hours, Wash off unabsorbed virus with 1640 culture medium without serum, prepare cells infected by virus to 1×10^6/ml with culture solution, and inoculate on 96-pore culture plate, 100 μl/pore. […] Set cell control group and virus infected cell control group. Incubate under 37° C. and 5% CO2. On the fourth day (96 hours), pipette out the supernatant liquid and store under −20° C. for determination of HIV-1 P24 antigen titer and calculation of drug inhibitory action. Add MTT staining to cells for determination of cytotoxicity. Determination of cytotoxicity by MTT staining: Add 10 μl of 5 mg/ml MTT stain into each pore, continue to incubate under 37° C., 5% CO2 and saturated humidity for 4 hours. […] Determine the HIV-1 P24 antigen titer according to the operation procedure provided by the HIV-1 P24 antigen reagent kit. Compare the drug-added group with virus control group. […] Calculation method of 50% toxic concentration (CC50), 50% effective concentration (EC50) and selection index (SI): […]

In data set [1] the test system is HIV-1 AZT-sensitive strain 018a P24 antigen. Description: Inhibition of HIV-1 018a P24 antigen in PBMC cell culture. Type of data set: cell-based. To be noted: for EC50: Human immunodeficiency virus 1, PBMC, 2 h, administration after adsorbing 2 hours. The method, then:
(§2) Collect cells with curette, infect cells with 10^−2 AZT sensitive (018a) or AZT resistant (018c) virus strain liquid, and adsorb for 2 hours, Wash off unabsorbed virus with 1640 culture medium without serum, prepare cells infected by virus to 1×10^6/ml with culture solution, and inoculate on 96-pore culture plate, 100 μl/pore. […] Set cell control group and virus infected cell control group. Incubate under 37° C. and 5% CO2. On the fourth day (96 hours), pipette out the supernatant liquid and store under −20° C. for determination of HIV-1 P24 antigen titer and calculation of drug inhibitory action. Add MTT staining to cells for determination of cytotoxicity. Determination of cytotoxicity by MTT staining: Add 10 μl of 5 mg/ml MTT stain into each pore, continue to incubate under 37° C., 5% CO2 and saturated humidity for 4 hours. […] Determine the HIV-1 P24 antigen titer according to the operation procedure provided by the HIV-1 P24 antigen reagent kit. Compare the drug-added group with virus control group. […] Calculation method of 50% toxic concentration (CC50), 50% effective concentration (EC50) and selection index (SI):
(§3) (3) Calculation Method of Selection Index (SI) on HIV-1 P24 Antigen in Cell Culture SI=CC50/EC50

Data set [2] can be described thus: MTT toxicity on PBMC infected by HIV-1 AZT-resistant strain 018c. To be noted: human. How it is done: as §1
Data set [3] deals with HIV-1 AZT-resistant strain 018c P24 antigen. Description: Inhibition of HIV-1 018c P24 antigen in PBMC cell culture. The class given is cell-based. The settings on record: 018c; for EC50: Human immunodeficiency virus 1, PBMC, 2 h, PBMC, administration after adsorbing 2 hours; for SI: SI=CC50/EC50. The method, then: as §2, §3
Data set [4] has as its target T1, glucocorticoid receptor of rat hepatic cytoplasm (Rattus norvegicus, UniProt P06536).
T1 construct: centrifuge at 175000 g for 1 hour, and take out the supernatant liquid as reserve; from tissue; host or cells: liver cytosol (175000 g supernatant) of adrenalectomised female SD rats
T1 sequence (P06536 1-795): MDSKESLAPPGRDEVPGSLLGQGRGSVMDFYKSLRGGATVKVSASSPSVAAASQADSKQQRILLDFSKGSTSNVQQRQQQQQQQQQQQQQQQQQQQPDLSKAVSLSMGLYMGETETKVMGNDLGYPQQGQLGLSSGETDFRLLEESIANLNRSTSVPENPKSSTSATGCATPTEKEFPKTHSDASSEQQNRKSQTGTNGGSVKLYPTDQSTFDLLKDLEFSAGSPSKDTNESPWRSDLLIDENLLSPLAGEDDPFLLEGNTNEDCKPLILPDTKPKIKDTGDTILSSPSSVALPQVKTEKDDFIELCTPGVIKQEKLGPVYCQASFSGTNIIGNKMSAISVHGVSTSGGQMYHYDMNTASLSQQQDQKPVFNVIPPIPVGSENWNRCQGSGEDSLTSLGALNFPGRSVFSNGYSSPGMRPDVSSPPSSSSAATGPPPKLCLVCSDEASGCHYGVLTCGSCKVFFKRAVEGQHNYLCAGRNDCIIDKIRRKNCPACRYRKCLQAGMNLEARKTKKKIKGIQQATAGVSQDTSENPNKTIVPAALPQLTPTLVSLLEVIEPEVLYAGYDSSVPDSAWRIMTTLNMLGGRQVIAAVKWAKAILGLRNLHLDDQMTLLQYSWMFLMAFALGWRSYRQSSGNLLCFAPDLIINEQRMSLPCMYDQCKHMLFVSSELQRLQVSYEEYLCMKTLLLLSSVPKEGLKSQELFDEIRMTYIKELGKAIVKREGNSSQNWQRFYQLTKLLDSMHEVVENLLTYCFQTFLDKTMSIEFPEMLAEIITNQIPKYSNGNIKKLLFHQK
Nature of the data set: Competition inhibition of [3H]-dexamethasone binding in rat hepatic cytoplasm. The settings on record: read-out: Inhibition rate on binding of [3H]-dexamethasone. The method, then: Clean female SD rats, body weight 200-250 g, are fed with certain quantity of food and freely drink water. The temperature is controlled at about 24° C. and an illumination cycle are for 11 hours by day and 13 hours at night. All animals are observed for 1 week before experiment. Incisions are made on two sides below arch of ribs on dorsal position of rats to extirpate adrenal glands. After operation, the rats are fed with physiological saline to maintain water-electrolyte balance. On the third day after operation, animals are acutely executed. The liver is taken out immediately and placed in ice cold buffer solution; the blood should be washed off as much as possible. Take certain quantity of tissue, add buffer solution (1:4), cut the tissue with scissors, intermittently homogenize the tissue under low temperature, centrifuge at 175000 g for 1 hour, and take out the supernatant liquid as reserve. […] Then carry out the competition inhibition experiment.

For a further data set, the system named is thymus gland cells. Nature of the data set: Anti-glucocorticoid activity test, [3H]-TdR incorporation in rat thymus gland cells. Type of data set: cell-based. The settings on record: dexamethasone 6×10^−8 mol/L used singly. The method, then:
Clean female SD rats, body weight 200-250 g, are fed with certain quantity of food and freely drink water. The temperature is controlled at about 24° C. and an illumination cycle are for 11 hours by day and 13 hours at night. All animals are observed for 1 week before experiment. Rats are anesthetized with ethyl ether. Incisions are made on two sides below costal arch of ribs on dorsal position of rats to extirpate adrenal glands. The rats are fed with physiological saline after operation. On the seventh day, animals are acutely executed. Take out thymus gland to place in to HBSS buffer solution, wash twice, remove connective tissue, cut the tissue with scissors, lightly grind with homogenizer, filter with three layers of gauze, and centrifuge the filtrate for 5 min (500 rpm). Wash the precipitated cells twice with HBSS, re-suspend the cells in RPMI1640 culture medium for cell count and cell survival rate determination, and adjust cell concentration to 1×10^7/ml. Determination of anti-glucocorticoid activity: Add tested compound into culture medium, reaction concentration 6×10^−[…], and place in 37° C. incubator for 3 hours. Add thymus gland cells to make cell concentration to become 10^7/ml and incubate at 37° C. for 3 hours. Add 1 μCi of label substance, mix, and incubate for 1 hour. Add 100 μl of ice cold 5% trichloroacetic acid to end the reaction. Place the test tube on ice and wash twice with 2 ml of ice cold 5% trichloroacetic acid and centrifuge twice, 500 rpm×5 min, Add 0.5 ml of 1N NaOH to dissolve the precipitated cells, pipet out the liquid, dry the residue with cotton stick, place into same scintillation bottle, and determine the radioactivity by liquid scintillation counter.
Calculate the incorporation rate of [^3H]-TdR:
In which: T=[^3H]-TdR count without presence of compound, Td=count with presence of compound, and NSB=non-specific adsorption.
Inhibition rate=100%−incorporation rate

Where [5] appears, read: 50% toxic concentration CC50, Average.
[6] abbreviates: 50% toxic concentration CC50, Experiment 1.
Where [7] appears, read: 50% toxic concentration CC50, Experiment 2.

Broadly, the CC50 is the concentration at which the toxic effect on the cells reaches its halfway point. Lower therefore signals harm at low concentration. For orientation: EC50 means the midpoint of the concentration-response curve. A lower EC50 goes with a more potent agent. For `Cc1cn([C@H]2C[C@H](N=[N+]=[N-])[C@@H](CO)O2)c(=O)[nH]c1=O` [AZT, zidovudine], the CC50 at 96 h in the data set “in vitro” (50% toxic concentration CC50) turned out to be 58.8 µg/mL (≈ 220 µM); in data set [2] (setting [5]) it was 74.3 µg/mL (≈ 278 µM); in data set [2] (setting [6]) it was 70.7 µg/mL (≈ 265 µM); in data set [2] (setting [7]), 77.9 µg/mL (≈ 291 µM). For the same compound, the half-maximal effective concentration (EC50) was under 0.0064 µg/mL in data set [1] (Average, PBMC); under 0.0061 µg/mL in data set [1] (Experiment 1, PBMC); under 0.0064 µg/mL in data set [1] (Experiment 2, PBMC); 0.054 µg/mL (≈ 0.202 µM) in data set [3] (Average); 0.047 µg/mL (≈ 0.176 µM) in data set [3] (Experiment 1); 0.061 µg/mL (≈ 0.228 µM) in data set [3] (Experiment 2). Besides, the SI in data set [1] (SI=CC50/EC50, Average) was found to be 10275.78; in data set [1] (SI=CC50/EC50, Experiment 1), 9193.75; in data set [1] (SI=CC50/EC50, Experiment 2), 11357.81; in data set [3] (Average), 1390.87; in data set [3] (Experiment 1), 1504.68; in data set [3] (Experiment 2), 1277.05.
In the case of `CC#C[C@]1(O)CC[C@H]2[C@@H]3CCC4=CC(=O)CCC4=C3[C@@H](c3ccc(N(C)C)cc3)C[C@@]21C` [Mifepristone, mifepristone], the CC50 at 96 h in “in vitro” (50% toxic concentration CC50, Average, PBMC, 018a) came to 83.6 µg/mL (≈ 195 µM); in the data set “in vitro” (50% toxic concentration CC50, Experiment 1, PBMC, 018a), 69.4 µg/mL (≈ 162 µM); in the data set “in vitro” (50% toxic concentration CC50, Experiment 2, PBMC, 018a) it was 97.8 µg/mL (≈ 228 µM); in data set [2] (setting [5]), 89.9 µg/mL (≈ 209 µM); in data set [2] (setting [6]) it was 105 µg/mL (≈ 244 µM); in data set [2] (setting [7]), 74.7 µg/mL (≈ 174 µM). The concentration for a half-maximal effect (EC50) amounted to 12.4 µg/mL (≈ 28.8 µM) in data set [1] (Average, PBMC); 12.4 µg/mL (≈ 28.9 µM) in data set [1] (Experiment 1, PBMC); 12.4 µg/mL (≈ 28.8 µM) in data set [1] (Experiment 2, PBMC); 10.1 µg/mL (≈ 23.5 µM) in data set [3] (Average); 10.4 µg/mL (≈ 24.2 µM) in data set [3] (Experiment 1); 9.84 µg/mL (≈ 22.9 µM) in data set [3] (Experiment 2).
As usually defined, the inhibition is the change of the read-out against control, counted positive when it falls. `C[C@@H]1C[C@H]2[C@@H]3CCC4=CC(=O)C=C[C@]4(C)[C@@]3(F)[C@@H](O)C[C@]2(C)[C@@]1(O)C(=O)CO` [Dexamethasone, dexamethasone]: in data set [4], the inhibition at 0.0008 µM was 14.7 ± 7.34%, the inhibition at 0.0016 µM was determined as 10.4 ± 6.11%, the inhibition at 0.004 µM is 24.8 ± 5.92% and the inhibition at 0.02 µM was found to be 39.4 ± 4.83%. Besides, in data set [4], the inhibition at 0.1 µM was 60.4 ± 5.67% and the inhibition at 0.5 µM stood at 89.2 ± 8.56%. Further, the “Incorporation rate of [3H]-TdR” value in the data set with thymus gland cells is listed as 43.2%±3.7.
